Here are results for one molecule from US20070071688A1, “Pharmaceutical compositions for transdermal administration of anti-inflammatory agents” (sanofi-aventis, priority 2000, published 2007).

The structures appear in SMILES notation. Values after ≈ are worked out from the molar mass of the structure shown.

A short description of data set [1]: Saturation solubility of ibuprofen in components of the transdermal formulation (without matrix). It counts as physicochemical. Particulars: 30° C. As to the method: Comparative tests were carried out in order to determine the saturation solubility of ibuprofen in various components of the transdermal formulation of the invention in the absence of matrix, namely water, 2-ethylhexyl 2-ethylhexanoate as transcutaneous absorption promoter, referred to hereinbelow as “promoter”, and isopropanol as nonaqueous solvent.
These various components were used alone or as homogeneous mixtures forming a clear solution, and the solubility measurements were performed at 30° C., after 24 hours of magnetic stirring and after filtration through a 0.22 μm filter.

A short description of data set [2]: Preliminary trials on solubility of ibuprofen in various solvents or components. It counts as physicochemical. The procedure:
In the context of the present invention, preliminary trials were carried out directed essentially toward studying the solubility of ibuprofen in various solvents or components.

Take `CC(C)Cc1ccc(C(C)C(=O)O)cc1` (centres unmarked) [Ibuprofen]: the Ibuprofen saturating concentration in data set [1] (isopropanol 68.21 / promoter 31.79 % m/m, no water, 24 hours) amounted to 403 mg/mL; in data set [1] (isopropanol 89.31 / promoter 10.69 % m/m, no water, 24 hours) it was 424 mg/mL; in data set [1] (isopropanol 100% m/m, 24 hours magnetic stirring, 0.22 μm filtration), 441 mg/mL; in data set [1] (promoter (2-ethylhexyl 2-ethylhexanoate) 100% m/m, 24 hours magnetic stirring, 0.22 μm filtration), 192 mg/mL; in data set [1] (water 4.33 / isopropanol 85 / promoter 10.67 % m/m, 24 hours), 451 mg/mL; in data set [1] (water 4.38 / isopropanol 68.16 / promoter 27.46 % m/m, 24 hours) it was 431 mg/mL. The Ibuprofen saturating concentration in data set [1] (water 8.54 / isopropanol 68.23 / promoter 23.23 % m/m, 24 hours) came to 436 mg/mL; in data set [1] (water 8.59 / isopropanol 80.7 / promoter 10.69 % m/m, 24 hours) it was 448 mg/mL. In addition, the solubility thermodynamic at 24 h in data set [1] (thermodynamic from solid, water 100% m/m, 24 hours magnetic stirring, 0.22 μm filtration, read-out: Ibuprofen saturating concentration) worked out at 69 µg/mL (≈ 334 µM). The solubility in water entry in data set [2] is listed as “entirely water-insoluble”. For the same molecule, the “solubility in fatty acid ester/alcohol mixtures” value in data set [2] (2-ethylhexyl 2-ethylhexanoate/ethanol or isopropanol mixtures) is reported as “soluble”.
